Assay results reported in BigSolDB 2.1.

c1ccc2ccccc2c1
Details | solubility (mole fraction)
in acetone, 297.17 K | 0.211
in acetone, 298.11 K | 0.218
in acetone, 300.23 K | 0.233
in acetone, 301.55 K | 0.246
in acetone, 303.47 K | 0.259
in acetone, 305.14 K | 0.272
in acetone, 306.63 K | 0.285
in acetone, 307.76 K | 0.297
in acetone, 309.37 K | 0.31
in acetone, 311.03 K | 0.323
in acetone, 312.03 K | 0.335
in acetone, 312.97 K | 0.347
in acetone, 314.37 K | 0.361
in acetone, 315.74 K | 0.376
in acetone, 317.26 K | 0.394
in acetone, 319.06 K | 0.415
in acetone, 320.87 K | 0.44
in acetone, 322.7 K | 0.459
in ethanol, 304.26 K | 0.0464
in ethanol, 307.44 K | 0.0531
in ethanol, 309.53 K | 0.0566
in ethanol, 311.93 K | 0.0614
in ethanol, 314.52 K | 0.0658
in ethanol, 315.93 K | 0.0703
in ethanol, 318.07 K | 0.076
in ethanol, 319.8 K | 0.0816
in ethanol, 321.46 K | 0.0876
in ethanol, 323.45 K | 0.103
in ethanol, 325.68 K | 0.116
in ethanol, 327.32 K | 0.129
in ethanol, 329.34 K | 0.14
in ethanol, 330.43 K | 0.154
in ethanol, 332 K | 0.174
in ethanol, 333.9 K | 0.204
in ethanol, 335.9 K | 0.238
in ethanol, 337.76 K | 0.293
in ethanol, 339.76 K | 0.382
in n-butanol, 313.77 K | 0.113
in n-butanol, 315.17 K | 0.119
in n-butanol, 317.98 K | 0.139
in n-butanol, 320.74 K | 0.159
in n-butanol, 323.67 K | 0.183
in n-butanol, 325.6 K | 0.205
in n-butanol, 327.76 K | 0.228
in n-butanol, 329.03 K | 0.252
in n-butanol, 331.8 K | 0.294
in n-butanol, 333.65 K | 0.333
in n-butanol, 335.1 K | 0.375
in n-butanol, 337 K | 0.436
in n-butanol, 338.15 K | 0.477
in n-butanol, 339.63 K | 0.526
in n-butanol, 340.65 K | 0.567
in n-butanol, 342.04 K | 0.62
in n-butanol, 342.8 K | 0.66
in n-heptane, 290.25 K | 0.0595
in n-heptane, 294.3 K | 0.0705
in n-heptane, 297.85 K | 0.0798
in n-heptane, 301.37 K | 0.0889
in n-heptane, 303.04 K | 0.0978
in n-heptane, 305.3 K | 0.107
in n-heptane, 307.53 K | 0.115
in n-heptane, 309.63 K | 0.123
in n-heptane, 311.2 K | 0.133
in n-heptane, 312.6 K | 0.141
in n-heptane, 314.13 K | 0.15
in n-heptane, 315.15 K | 0.158
in n-heptane, 316.63 K | 0.168
in n-heptane, 317.65 K | 0.177
in n-heptane, 321.33 K | 0.209
in n-heptane, 324.25 K | 0.23
in n-heptane, 326.98 K | 0.265
in n-heptane, 329.45 K | 0.304
in n-heptane, 330.26 K | 0.329
in n-heptane, 331.5 K | 0.35
in n-heptane, 333.75 K | 0.389
in toluene, 291.35 K | 0.239
in toluene, 301.45 K | 0.31
in toluene, 304.54 K | 0.34
in toluene, 308.53 K | 0.374
in toluene, 311.93 K | 0.406
in toluene, 315.25 K | 0.439
in toluene, 318.55 K | 0.472
in toluene, 322.23 K | 0.503
in toluene, 324.37 K | 0.537
in toluene, 327.55 K | 0.589
in toluene, 331.35 K | 0.637
in toluene, 334.65 K | 0.677
